In paper PMC2703642, “PpoR is a conserved unpaired LuxR solo of Pseudomonas putida which binds N-acyl homoserine lactones” (BMC Microbiology, 2009):

Biological target: T1, PpoR (Pseudomonas putida, UniProt Q88E21)
T1 construct: gene PP_4647; full-length, 235 aa [sic] (705 bp ORF); 721-bp fragment with entire ppoR cloned SphI-HindIII in pQE30 (pQEPpoR); expressed in E. coli M15(pRep4); not purified
Experiment: AHL retention in washed E. coli cells expressing PpoR, ethyl acetate extraction, TLC with A. tumefaciens NTL4 (pZLR4) overlay
Type: cell-based
Details: 1 uM AHL in LB, 30 C, IPTG induction 3.5 h; pQE30 vector-only control

T1 sequence (Q88E21 entry or part of it): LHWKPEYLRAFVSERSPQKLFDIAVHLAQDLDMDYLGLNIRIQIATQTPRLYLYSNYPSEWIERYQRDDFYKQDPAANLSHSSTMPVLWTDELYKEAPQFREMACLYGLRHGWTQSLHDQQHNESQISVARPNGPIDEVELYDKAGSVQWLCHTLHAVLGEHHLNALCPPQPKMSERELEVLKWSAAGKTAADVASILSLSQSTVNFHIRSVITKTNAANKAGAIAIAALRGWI

| SMILES | AHL retention in washed E. coli cells expressing PpoR, ethyl acetate extraction, |
| --- | --- |
| CCCC(=O)CC(=O)N[C@H]1CCOC1=O [3-oxo-C6-HSL] | Purification of AHLs from E. coli over-expressing PpoR resulted in detection of 3-oxo-C6-HSL |
| CCCCCC(=O)CC(=O)N[C@H]1CCOC1=O [3-oxo-C8-HSL] | PpoR also exhibited probable binding to 3-oxo-C8-HSL and 3-oxo-C10-HSL, but to a lower extent |
| CCCCCCCC(=O)CC(=O)N[C@H]1CCOC1=O [3-oxo-C10-HSL] | PpoR also exhibited probable binding to 3-oxo-C8-HSL and 3-oxo-C10-HSL, but to a lower extent |
